Test results from patent US11357779B2 (G1 Therapeutics, Inc., priority 2018, dated 2022).

Test system: HR+, HER2− locally advanced or metastatic breast cancer
Assay: Clinical efficacy of Form B of Compound II plus fulvestrant, RECIST Version 1.1
Assay type: in vivo, human
Details: FIG. 3, FIG. 4; with fulvestrant
Procedure: Target lesions in subjects from Example 1 were evaluated every 8 weeks using the RECIST, Version 1.1 criteria (Eisenhower 2009) as follows: • Complete Response (CR): Disappearance of all target lesions. Any pathological lymph nodes (whether target or nontarget) must have reduction in short axis to <10 mm. • Partial Response (PR): At least a 30% decrease in the sum of diameters of target lesions, taking as reference the baseline sum of diameters. • Progressive Disease (PD): At least a 20% increase in the sum of diameters of target lesions, taking as reference the smallest sum on study (this includes the baseline sum if that is the smallest on study). […] A response category of not evaluable (NE) was used when there was inadequate information to otherwise categorize the response status. • Non-target lesions were evaluated using the following criteria: • Complete Response (CR): Disappearance of all nontarget lesions and normalization of tumor marker level. […]
The overall response (OR) was determined by evaluation of the combination of target and nontarget lesion responses as outlined in Table 94.
The clinical efficacy of the combination of Form B of Compound II and fulvestrant for QD dosing for the subjects from Example 1 was evaluated using the above criteria. […]

CC(C)N1CCN(c2ccc(Nc3ncc4cc5n(c4n3)C3(CCCCC3)CNC5=O)nc2)CC1 [Form B]
anti-tumor activity (waterfall and spider plots, target lesions): effective anti-tumor activity
